pIC50: −log10 of the molar value.
Experiments:
[1] = target: T1, RnpA (protein component of ribonuclease P) (Staphylococcus aureus, UniProt P0A0H5); experiment: RiboGreen fluorescence RNA degradation screen; agarose gel titration of spa mRNA degradation by purified RnpA; assay type: biochemical
T1 construct: recombinant full-length predicted open reading frame, N-terminal hexahistidine tag
Excerpt: RiboGreen fluorescence RNA degradation screen; agarose gel titration of spa mRNA degradation by purified RnpA on RnpA (protein component of ribonuclease P) | five of these molecules were bona-fide inhibitors of RnpA-mediated RNA degradation (Figure 3B). One of these compounds, RNPA1000

RNase III = target: T2, RNase III (Escherichia coli, UniProt P0A7Y0); experiment: in vitro ribonuclease activity of commercial enzyme (off-target counter-assay, data not shown); assay type: biochemical
T2 construct: gene rnc
T2 sequence (P0A7Y0 whole entry): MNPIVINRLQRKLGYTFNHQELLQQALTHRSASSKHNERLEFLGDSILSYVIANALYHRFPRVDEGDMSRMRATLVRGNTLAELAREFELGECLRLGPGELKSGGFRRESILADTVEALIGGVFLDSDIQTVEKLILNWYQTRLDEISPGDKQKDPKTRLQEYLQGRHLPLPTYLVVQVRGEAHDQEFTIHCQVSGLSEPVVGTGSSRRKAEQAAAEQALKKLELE

T1 sequence (P0A0H5 whole entry): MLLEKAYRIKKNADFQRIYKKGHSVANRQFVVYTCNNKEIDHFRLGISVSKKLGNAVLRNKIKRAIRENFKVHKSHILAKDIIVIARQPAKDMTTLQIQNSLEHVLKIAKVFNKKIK

Work on `Cc1cc(/C=C(/C#N)C(=O)Nc2cccc(Br)c2)c(C)n1-c1ccc(C(=O)O)cc1` [RNPA1000] yielded a pIC50 [1] of 3.90 to 4.00 and a pIC50 (RNase III) of 3.12 to 3.30.
